This experiment deals with SUD-NM / TRF2 G4 interaction (Severe acute respiratory syndrome coronavirus 2, UniProt P0DTD1). The format is binding, SARS-CoV-2. To be noted: His-SUD-NM 10 nM, biotinylated TRF2 G4 50 nM, TMP 100 to 500 nM.

We go through one molecule from article PMC8287907 (Nucleic Acids Research, 2021).

“Also recorded” adds a separate entry of the source.

For `Cc1cc2cc3c(C)cc(=O)oc3c(C)c2o1` [TMP, trimethyl psoralen], the “Inhibition of the SUD/G4 interaction (in words)” value was “No inhibition; also recorded: does not inhibit”.
